As usually defined, the IC50 is the concentration that inhibits the measured activity by half. Usually inhibition in vivo stands for the share of the control response that was lost under treatment.

19 molecules from ChEMBL document CHEMBL4680288, “Cholesteryl ester transfer protein (CETP) inhibitors based on cyclic urea, bicyclic urea and bicyclic sulfamide cores” (Bioorg Med Chem Lett, 2021) can be followed below.

For data set [1], the target named is T1, Cholesteryl ester transfer protein (Homo sapiens, UniProt P11597).
T1 sequence (P11597 whole entry): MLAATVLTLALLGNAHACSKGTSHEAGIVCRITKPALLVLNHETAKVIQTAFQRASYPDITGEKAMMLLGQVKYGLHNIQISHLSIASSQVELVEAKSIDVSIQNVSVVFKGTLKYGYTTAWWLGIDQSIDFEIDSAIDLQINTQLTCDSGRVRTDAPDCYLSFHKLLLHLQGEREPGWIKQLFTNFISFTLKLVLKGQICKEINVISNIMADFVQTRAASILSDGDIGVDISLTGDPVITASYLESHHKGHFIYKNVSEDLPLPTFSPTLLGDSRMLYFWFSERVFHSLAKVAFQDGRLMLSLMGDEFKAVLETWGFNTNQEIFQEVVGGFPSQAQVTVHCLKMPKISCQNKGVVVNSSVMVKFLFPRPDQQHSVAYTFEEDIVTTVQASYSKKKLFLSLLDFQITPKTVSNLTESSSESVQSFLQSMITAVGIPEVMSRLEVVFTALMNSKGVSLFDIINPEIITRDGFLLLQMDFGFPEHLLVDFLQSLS
Description: Inhibition of recombinant CETP (unknown origin) assessed as inhibition of transfer of [3H] cholesteryl oleate or [3H] triolein between exogenous LDL and HDL in 2% human serum.

Data set [2] addresses T1, Cholesteryl ester transfer protein. Description: Inhibition of CETP in 95% human serum assessed as inhibition of transfer of [3H] cholesteryl oleate or [3H] triolein between LDL and HDL. It is filed as cell-free.
A short description of data set [3]: In vivo inhibition of CETP in cynomolgus-CETP transgenic mouse assessed as increase in plasma HDL-C level at 0.3 mg/kg, po measured after 4 hrs. More on the design: scale not given: the % may be the effect or the level left. In kind it is functional.
Data set [4] in a line: In vivo inhibition of CETP in cynomolgus-CETP transgenic mouse plasma at 0.3 mg/kg, po measured after 4 hrs. It is filed as functional.
Data set [5] in a line: Plasma concentration in cynomolgus-CETP transgenic mouse at 0.3 mg/kg, po measured after 4 hrs. In kind it is ADME, organism-based.
The nature of data set [6]: Plasma concentration in cynomolgus-CETP transgenic mouse at 1 mg/kg, po measured after 4 hrs. It is filed as ADME, organism-based.
Data set [7] can be described thus: In vivo inhibition of CETP in cynomolgus-CETP transgenic mouse assessed as increase in plasma HDL-C level at 1 mg/kg, po measured after 4 hrs. More on the design: scale not given: the % may be the effect or the level left. In kind it is functional.
Data set [8] is described as follows: In vivo inhibition of CETP in cynomolgus-CETP transgenic mouse plasma at 1 mg/kg, po measured after 4 hrs. It is filed as functional.

As to `COc1ccc(-c2ccc(C(=O)O)cc2C)cc1-c1ccc(C(F)(F)F)cc1[C@@H]1CC[C@H]2[C@@H](c3cc(C(F)(F)F)cc(C(F)(F)F)c3)NC(=O)N12`, in data set [1], the IC50 stood at 0.379 µM.
Consider `COc1ccc(-c2cccnc2C)cc1-c1ccc(C(F)(F)F)cc1[C@@H]1CC[C@H]2[C@@H](c3cc(C(F)(F)F)cc(C(F)(F)F)c3)NC(=O)N12`, for which, in data set [1], the IC50 was 0.151 µM.
Regarding `COc1ccc([C@H]2CC[C@H](C(=O)O)CC2)cc1-c1ccc(C(F)(F)F)cc1[C@@H]1CC[C@H]2[C@@H](c3cc(C(F)(F)F)cc(C(F)(F)F)c3)NS(=O)(=O)N12`, the concentration for half-maximal inhibition (IC50) amounted to 2.68 µM in data set [2] and 0.394 µM in data set [1].
For the molecule `COc1ccc(-c2ccc(C(=O)O)nc2C)cc1-c1ccc(C(F)(F)F)cc1[C@@H]1CC[C@H]2[C@@H](c3cc(C(F)(F)F)cc(C(F)(F)F)c3)NC(=O)N12`, the IC50 in data set [1] is 0.468 µM.
For `COc1cc(F)c(C(C)C)cc1-c1ccc(C(F)(F)F)cc1CN1C(=O)N[C@H](c2cc(C(F)(F)F)cc(C(F)(F)F)c2)[C@@H]1C`, the IC50 in data set [2] was over 10 µM; in data set [1], 2.78 µM.
`COc1ncc(-c2ccc(C(=O)O)cc2C)cc1-c1ccc(C(F)(F)F)cc1[C@@H]1CC[C@H]2[C@@H](c3cc(C(F)(F)F)cc(C(F)(F)F)c3)N(C)C(=O)N12`: the IC50 in data set [1] was 0.248 µM.
On the same count and under the same terms, as for `COc1ncc(-c2c(C)cc(C(=O)O)cc2C)cc1-c1ccc(C(F)(F)F)cc1[C@@H]1CC[C@H]2[C@@H](c3cc(C(F)(F)F)cc(C(F)(F)F)c3)NC(=O)N12`, the figure is 0.104 µM.
In the case of `COc1ncc(-c2ccc(C(=O)O)cc2C)cc1-c1ccc(C(F)(F)F)cc1CN1C(=O)N(C)[C@H](c2cc(C(F)(F)F)cc(C(F)(F)F)c2)[C@@H]1C`, the Activity in data set [3] was 51%. For the same molecule, the IC50 in data set [2] turned out to be 0.129 µM; in data set [1] it was 0.028 µM. Besides, in data set [4], the inhibition in vivo at 0.3 mg/kg was 77%. In data set [5], this molecule gave a concentration at 4 h of 630 nM.
Take `COc1ncc(-c2ccc(C(=O)O)cc2C)cc1-c1ccc(C(F)(F)F)cc1CN1C(=O)N[C@H](c2cc(C(F)(F)F)cc(C(F)(F)F)c2)[C@@H]1C`: the IC50 in data set [2] came out at 0.397 µM; in data set [1], 0.038 µM.
For `COc1ccc([C@H]2CC[C@H](C(=O)O)CC2)cc1-c1ccc(C(F)(F)F)cc1[C@@H]1CC[C@H]2[C@@H](c3cc(C(F)(F)F)cc(C(F)(F)F)c3)NC(=O)N12`, in that order: 1.73 µM and 1.11 µM.
Turning to `COc1ccc(-c2ccc(C(=O)O)cc2C)cc1-c1ccc(C(F)(F)F)cc1CN1C(=O)N[C@H](c2cc(C(F)(F)F)cc(C(F)(F)F)c2)[C@@H]1C`, the concentration at 4 h in data set [6] stood at 700 nM. The IC50 in data set [2] was 0.339 µM; in data set [1], 0.037 µM. The Activity in data set [7] stood at 101%. For the same molecule, 1 mg/kg produced 87% inhibition in vivo in data set [8].
The molecule `COc1ncc(-c2c(C)cc(C(=O)NC3(C#N)CC3)cc2C)cc1-c1ccc(C(F)(F)F)cc1[C@@H]1CC[C@H]2[C@@H](c3cc(C(F)(F)F)cc(C(F)(F)F)c3)NC(=O)N12` displayed a concentration at 4 h in data set [6] of 1000 nM. Further, the IC50 was 0.095 µM in data set [2] and 0.055 µM in data set [1]. Also, the Activity in data set [7] is 30%. In addition, the inhibition in vivo at 1 mg/kg in data set [8] is 67%.
With `COc1ccc(-c2ccc(C(=O)O)cc2C)cc1-c1ccc(C(F)(F)F)cc1[C@@H]1CC[C@H]2[C@@H](c3cc(C(F)(F)F)cc(C(F)(F)F)c3)NS(=O)(=O)N12`, the IC50 in data set [1] stood at 0.135 µM.
In turn, `COc1ccc(-c2ccc(C(=O)O)cc2C)cc1-c1ccc(C(F)(F)F)nc1CN1C(=O)N[C@H](c2cc(C(F)(F)F)cc(C(F)(F)F)c2)[C@@H]1C` displayed a concentration at 4 h in data set [6] of 830 nM. The values for the IC50 in data set [2] and in data set [1] were 0.446 µM and 0.018 µM, respectively. Also, the Activity in data set [7] came to 86%. Besides, the inhibition in vivo at 1 mg/kg in data set [8] came to 89%.
On to `COc1ccc(CCC(=O)O)cc1-c1ccc(C(F)(F)F)cc1[C@@H]1CC[C@H]2[C@@H](c3cc(C(F)(F)F)cc(C(F)(F)F)c3)NC(=O)N12`, for which the IC50 in data set [1] came to 0.55 µM.
On the same count and under the same terms, as for `COc1ccc(-c2ccc(C(=O)O)cc2C)cc1-c1cnc(C(F)(F)F)cc1[C@@H]1CC[C@H]2[C@@H](c3cc(C(F)(F)F)cc(C(F)(F)F)c3)NC(=O)N12`, the figure is 0.544 µM; as for `COc1ccc(-c2ccc(C(=O)O)cc2C)cc1-c1ccc(C(F)(F)F)cc1[C@@H]1CC[C@H]2[C@@H](c3cc(C(F)(F)F)cc(C(F)(F)F)c3)N(C)C(=O)N12`, 0.414 µM.
As for `COc1ncc(-c2ccc(C(=O)O)cc2C)cc1-c1ccc(C(F)(F)F)cc1[C@@H]1CC[C@H]2[C@@H](c3cc(C(F)(F)F)cc(C(F)(F)F)c3)NC(=O)N12`, the Activity in data set [3] came out at 58%. The IC50 worked out at 0.305 µM in data set [2] and 0.106 µM in data set [1]. For the same molecule, the inhibition in vivo at 0.3 mg/kg in data set [4] was 32%. The concentration at 4 h in data set [5] worked out at 550 nM.
`COc1ncc(-c2ccc(C(=O)O)cc2C)cc1-c1ccc(C(F)(F)F)nc1CN1C(=O)N[C@H](c2cc(C(F)(F)F)cc(C(F)(F)F)c2)[C@@H]1C`: in data set [6], the concentration at 4 h came to 1260 nM. Besides, the values for the IC50 in data set [2] and in data set [1] were 0.364 µM and 0.017 µM, respectively. Further, in data set [7], the Activity worked out at 139%. The molecule also registered an inhibition in vivo at 1 mg/kg in data set [8] of 87%.
